Results on two molecules are retold here after patent US5773422A, “Avermectin formulation” (priority 1996, dated 1998).

The conditions of series [1]: cited from earlier work.
Series [2] can be described thus: solubility of avermectins/ivermectin in N-methylpyrrolidone and 2-pyrrolidone formulations; water tolerance (clear solution becomes milky or cloudy as excess water is added). In kind it is physicochemical. As for the experimental part: Both N-methylpyrrolidone and 2-pyrrolidone have been approved as a safe solvent for injection, but only for oxytetracycline; which is chemically unlike ivermectin. […] Ivermectin can be present in the formulation from 0.1% to 40% (w/v). N-methylpyrrolidone (also known as M-pyrole) can be present from 5% to essentially 100% (v/v) of the formulation. The specific gravity of N-methylpyrrolidone is 1.027 at 25° C. relative to water at 4° C. Additional compounds can be included as desired, e.g. propylene glycol up to 95% by volume, water up to 90% by volume and Clorsulon (an antiparasitic agent frequently co-administered with ivermectin) up to 40% by weight. The formulation can contain water up to amounts which limit avermectin solubility. The maximum amount of water which can be included depends upon the amount of avermectin and the presence of co-solvents such as propylene glycol, and presence of detergent, as illustrated in the Examples. The amount of water which can be present is limited only by avermectin solubility. The presence of too much water can be readily detected because the clear solution becomes milky or cloudy as excess water is added. Where N-methylpyrrolidone is the sole solvent, up to 30% by volume of water can be included in a formulation containing 1% (w/v) ivermectin. If less ivermectin is present, the amount of water can be increased somewhat. If 10% (v/v) propylene glycol is a co-solvent with 20% (w/v) N-methylpyrrolidone, 0.5% ivermectin remains soluble in the presence of water up to about 70% by volume. Compositions containing 2-pyrrolidone completely or partially substituted for N-methylpyrrolidone in the exemplified formulations are equivalent in their solubility properties. As noted above, compositions containing N-methylpyrrolidone are preferred.

For series [3] the following is noted: cited from earlier work. The source holds these as a separate data set.
Series [4] is described as follows: pain and tissue reaction at the injection site. In kind it is in vivo. Conditions: compared with 2-pyrrolidone.
Series [5] concerns Rat. The note with it: cited from earlier work.

Turning to 22,23-dihydroavermectin B1 [ivermectin], the “solubility in 1-butanol” value in series [1] (1-butanol) is 330 mg/mL. Also, in series [1] (2-propanol), the “solubility in 2-propanol” value was 70 mg/mL. The solubility in acetone in series [1] (acetone) is 81 mg/mL. The solubility in methylethylketone in series [1] (methylethylketone) is 320 mg/mL. Further, in series [1] (water, room temperature), the solubility in water result is reported as “about 0.005 mg per ml”. Further, the “water in the presence of which ivermectin remains soluble” value in series [2] (0.5% ivermectin, 10% (v/v) propylene glycol co-solvent with 20% (w/v) N-methylpyrrolidone) is reported as “up to 70 % by volume”. For the same molecule, in series [2] (2-pyrrolidone, to permit formulation of therapeutic compositions), the “solubility in 2-pyrrolidone” value is “sufficiently soluble”. Moreover, the “amount of water which can be included (limited by avermectin solubility)” value in series [2] (N-methylpyrrolidone sole solvent, 1% (w/v) ivermectin) is on record as “up to 30 % by volume”. Besides, the “solubility in N-methylpyrrolidone” value in series [2] (N-methylpyrrolidone, to permit formulation of therapeutic compositions) is “sufficiently soluble”.

As for `CN1CCCC1=O` [N-methylpyrrolidone], the “time in which most of the compound is eliminated by the kidneys” value in series [3] was not above 24 h. In series [4], the “pain at the injection site” value is listed as “less pain at the injection site” and the tissue reaction entry was “less tissue reaction”. Also, in series [5] (Rat, oral), the LD50 – broadly, the dose at which mortality reaches 50% – is given as 4200 mg/kg. Also, the oral toxicity entry in series [5] is “very low order of oral toxicity”.
